For this experiment, the target named is Cdk9/cyclinT1 (Homo sapiens, UniProt P50750). Put plainly: Cdk9/cyclinT1 IMAP Protocol (fluorescence polarization kinase assay). The conditions noted are these: ATP 6 uM. In general terms: Polarisation of emitted light reports the rotation of a fluorescent probe.
The mark [1] stands for this setting: Cdk9_cyclinT1_IC50, Table V, generated using one of the two Cdk9/cyclinT1 assays (IMAP or Alpha Screen), not stated which.
Where [2] appears, read: Cdk9_cyclinT1_IC50, generated using one of the two Cdk9/cyclinT1 assays (IMAP or Alpha Screen), not specified per value.

The text below walks through data of patent publication US20110130380A1, “Heteroaryl Kinase Inhibitors” (priority 2009, published 2011).

Some results are limits rather than exact numbers.

Sequence of Cdk9/cyclinT1 (P50750 whole entry): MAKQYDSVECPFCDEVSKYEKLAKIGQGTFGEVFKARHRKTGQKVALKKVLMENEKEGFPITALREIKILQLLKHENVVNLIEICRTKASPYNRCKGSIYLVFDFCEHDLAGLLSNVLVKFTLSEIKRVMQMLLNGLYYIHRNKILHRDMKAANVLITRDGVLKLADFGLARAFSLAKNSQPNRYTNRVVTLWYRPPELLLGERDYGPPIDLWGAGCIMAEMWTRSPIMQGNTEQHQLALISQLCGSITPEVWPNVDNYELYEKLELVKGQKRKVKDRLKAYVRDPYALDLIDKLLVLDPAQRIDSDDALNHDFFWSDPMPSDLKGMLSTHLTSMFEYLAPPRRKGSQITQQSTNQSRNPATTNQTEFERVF
Sequence of Cdk9/cyclinT1 (O60563 whole entry partner): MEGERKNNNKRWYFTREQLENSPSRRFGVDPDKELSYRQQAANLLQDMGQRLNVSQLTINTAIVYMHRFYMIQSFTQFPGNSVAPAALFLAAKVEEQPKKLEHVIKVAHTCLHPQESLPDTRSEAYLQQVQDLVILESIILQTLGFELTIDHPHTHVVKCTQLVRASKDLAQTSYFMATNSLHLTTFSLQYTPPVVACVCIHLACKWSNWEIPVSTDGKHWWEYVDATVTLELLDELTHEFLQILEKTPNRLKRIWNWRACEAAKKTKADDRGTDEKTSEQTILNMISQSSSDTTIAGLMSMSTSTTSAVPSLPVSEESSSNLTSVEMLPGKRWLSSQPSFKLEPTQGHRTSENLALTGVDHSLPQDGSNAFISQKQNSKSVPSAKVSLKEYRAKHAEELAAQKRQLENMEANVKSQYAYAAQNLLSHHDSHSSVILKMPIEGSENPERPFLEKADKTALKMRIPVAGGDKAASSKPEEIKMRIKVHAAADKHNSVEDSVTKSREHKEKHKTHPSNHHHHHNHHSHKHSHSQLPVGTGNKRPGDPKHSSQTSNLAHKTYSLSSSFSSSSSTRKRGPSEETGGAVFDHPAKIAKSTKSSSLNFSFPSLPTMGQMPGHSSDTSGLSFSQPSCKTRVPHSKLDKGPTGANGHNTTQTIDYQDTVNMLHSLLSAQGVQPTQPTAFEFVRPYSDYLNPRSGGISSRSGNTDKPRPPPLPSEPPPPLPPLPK

As usually defined, the IC50 is the concentration needed to halve the response being measured. A low value points to greater potency. Regarding `CC1(C)CCC(C(=O)Nc2cc(-c3ccc(F)c(NCC4CCOCC4)n3)c(Cl)cn2)CN1` (stereo not drawn) [Example 210, 6,6-Dimethyl-piperidine-3-carboxylic acid {5′-chloro-5-fluoro-6-[(tetrahydro-pyran-4-ylmethyl)-amino]-[2,4′]bipyridinyl-2′-yl}-amide], the IC50 under setting [1] came to 1 nM. This lies in the single-digit nanomolar range.

Under setting [1], `O=C(Nc1cc(-c2ccc(C(F)(F)F)c(NCC3CCOCC3)n2)c(Cl)cn1)[C@@H]1CCCNC1` [Example 217, (R)-Piperidine-3-carboxylic acid {5′-chloro-6-[(tetrahydro-pyran-4-ylmethyl)-amino]-5-trifluoromethyl-[2,4′]bipyridinyl-2′-yl}-amide] showed an IC50 of 4 nM.

Turning to `CC1(C)COC(CNc2cccc(-c3cc(NC(=O)[C@@H]4CCCNC4)ncc3Cl)n2)CO1` (stereo partly drawn) [Example 218, (R)-Piperidine-3-carboxylic acid {5′-chloro-6-[(5,5-dimethyl-[1,4]dioxan-2-ylmethyl)-amino]-[2,4′]bipyridinyl-2′-yl}-amide], inhibition under setting [1] was half-maximal at 1 nM (IC50). With `CC1(C)COCC(CNc2cccc(-c3cc(NC(=O)[C@@H]4CCCNC4)ncc3Cl)n2)O1` (stereo partly drawn) [Example 219, (R)-Piperidine-3-carboxylic acid {5′-chloro-6-[(6,6-dimethyl-[1,4]dioxan-2-ylmethyl)-amino]-[2,4′]bipyridinyl-2′-yl}-amide], the IC50 under setting [1] was found to be 1 nM.

Turning to `O=C(Nc1cc(-c2cccc(NCC3(F)CCOCC3)n2)c(Cl)cn1)[C@@H]1CCCNC1` [Example 237, (R)-Piperidine-3-carboxylic acid {5′-chloro-6-[(4-fluoro-tetrahydro-pyran-4-ylmethyl)-amino]-[2,4′]bipyridinyl-2′-yl}-amide], half-maximal inhibition under setting [1] (IC50) required 1 nM. `N#CC1(CNc2cccc(-c3cc(NC(=O)[C@@H]4CCCNC4)ncc3Cl)n2)CCOCC1` [Example 238, (R)-Piperidine-3-carboxylic acid {5′-chloro-6-[(4-cyano-tetrahydro-pyran-4-ylmethyl)-amino]-[2,4′]bipyridinyl-2′-yl}-amide] had an IC50 under setting [1] of 1 nM. The same measure, in the same setting: as for `COC[C@@H]1C[C@@H](C(=O)Nc2cc(-c3cccc(NCC4(C)CCOCC4)n3)c(Cl)cn2)CN1` [Example 239, (3R,5S)-5-Methoxymethyl-pyrrolidine-3-carboxylic acid {5′-chloro-6-[(4-methyl-tetrahydro-pyran-4-ylmethyl)-amino]-[2,4′]bipyridinyl-2′-yl}-amide], the figure is 1 nM; as for `COC[C@H]1C[C@@H](C(=O)Nc2cc(-c3cccc(NCC4(C)CCOCC4)n3)c(Cl)cn2)CN1` [Example 246, (3R,5R)-5-Methoxymethyl-pyrrolidine-3-carboxylic acid {5′-chloro-6-[(4-methyl-tetrahydro-pyran-4-ylmethyl)-amino]-[2,4′]bipyridinyl-2′-yl}-amide], 6 nM; as for `CC[C@H]1CC[C@@H](C(=O)Nc2cc(-c3cccc(NCC4CCOCC4)n3)c(Cl)cn2)CN1` [Example 247, (3R,6S)-6-Ethyl-piperidine-3-carboxylic acid {5′-chloro-6-[(tetrahydro-pyran-4-ylmethyl)-amino]-[2,4′]bipyridinyl-2′-yl}-amide], 7 nM.

Under setting [1], `COC1(CNc2nc(-c3cc(NC(=O)[C@@H]4CCCNC4)ncc3Cl)ccc2F)CCOCC1` [Example 248, (R)-Piperidine-3-carboxylic acid {5′-chloro-5-fluoro-6-[(4-methoxy-tetrahydro-pyran-4-ylmethyl)-amino]-[2,4′]bipyridinyl-2′-yl}-amide] came in with an IC50 of 3 nM. On the same count and under the same terms, the result for `CC(C)O[C@H]1CNC[C@@H]1C(=O)Nc1cc(-c2cccc(NCC3(C)CCOCC3)n2)c(Cl)cn1` [Example 249, (3S,4R)-4-Isopropoxy-pyrrolidine-3-carboxylic acid {5′-chloro-6-[(4-methyl-tetrahydro-pyran-4-ylmethyl)-amino]-[2,4′]bipyridinyl-2′-yl}-amide] reads 9 nM; that for `COC[C@@H]1C[C@@H](C(=O)Nc2cc(-c3ccc(F)c(NCC4(OC)CCOCC4)n3)c(Cl)cn2)CN1` [Example 253, (3R,5S)-5-Methoxymethyl-pyrrolidine-3-carboxylic acid {5′-chloro-5-fluoro-6-[(4-methoxy-tetrahydro-pyran-4-ylmethyl)-amino]-[2,4′]bipyridinyl-2′-yl}-amide], 1 nM; that for `CC1(C)COCC(CNc2nc(-c3cc(NC(=O)[C@@H]4CCCNC4)ncc3Cl)ccc2F)O1` (stereo partly drawn) [Example 254, (R)-Piperidine-3-carboxylic acid {5′-chloro-6-[(6,6-dimethyl-[1,4]dioxan-2-ylmethyl)-amino]-5-fluoro-[2,4′]bipyridinyl-2′-yl}-amide], 1 nM.

In the case of `CC1(C)COC(CNc2nc(-c3cc(NC(=O)[C@@H]4CCCNC4)ncc3Cl)ccc2F)CO1` (stereo partly drawn) [Example 255, (R)-Piperidine-3-carboxylic acid {5′-chloro-6-[(5,5-dimethyl-[1,4]dioxan-2-ylmethyl)-amino]-5-fluoro-[2,4′]bipyridinyl-2′-yl}-amide], inhibition under setting [1] was half-maximal at 1 nM (IC50). Compound `COCCOC[C@@H]1C[C@@H](C(=O)Nc2cc(-c3cccc(NCC4(C)CCOCC4)n3)c(Cl)cn2)CN1` [Example 258, (3R,5S)-5-(2-Methoxy-ethoxymethyl)-pyrrolidine-3-carboxylic acid {5′-chloro-6-[(4-methyl-tetrahydro-pyran-4-ylmethyl)-amino]-[2,4′]bipyridinyl-2′-yl}-amide] gave an IC50 under setting [1] of 2 nM. `CC1(C)C[C@H](CNc2cccc(-c3cc(NC(=O)[C@@H]4CCNC4)ncc3Cl)n2)CCO1` [Example 259, (R)-Pyrrolidine-3-carboxylic acid {5′-chloro-6-[((R)-2,2-dimethyl-tetrahydro-pyran-4-ylmethyl)-amino]-[2,4′]bipyridinyl-2′-yl}-amide]: the IC50 under setting [1] amounted to 1 nM. Compared with the last compound, the IC50 is about 2-fold lower. Still for that read-out and setting: as for `CC1(C)C[C@@H](CNc2cccc(-c3cc(NC(=O)[C@@H]4CCNC4)ncc3Cl)n2)CCO1` [Example 260, (R)-Pyrrolidine-3-carboxylic acid {5′-chloro-6-[((S)-2,2-dimethyl-tetrahydro-pyran-4-ylmethyl)-amino]-[2,4′]bipyridinyl-2′-yl}-amide], the figure is 1 nM. On the same count and under the same terms, as for `COC1(CNc2nc(-c3cc(NC(=O)C4CCC(C)NC4)ncc3Cl)ccc2F)CCOCC1` (stereo not drawn) [Example 261, 6-Methyl-piperidine-3-carboxylic acid {5′-chloro-5-fluoro-6-[(4-methoxy-tetrahydro-pyran-4-ylmethyl)-amino]-[2,4′]bipyridinyl-2′-yl}-amide], the figure is 1 nM. For the compound `O=C(Nc1cc(-c2cncc(NCC3CCOCC3)c2)c(Cl)cn1)[C@@H]1CCCNC1` [Example 301, (R)-Piperidine-3-carboxylic acid {5′-chloro-5-[(tetrahydro-pyran-4-ylmethyl)-amino]-[3,4′]bipyridinyl-2′-yl}-amide], under setting [2], the IC50 is less than 8 nM. The same measure, in the same setting: as for `O=C(Nc1cc(-c2cnc(Cl)c(NCC3CCOCC3)c2)c(Cl)cn1)[C@@H]1CCCNC1` [Example 302, (R)-Piperidine-3-carboxylic acid {6,5′-dichloro-5-[(tetrahydro-pyran-4-ylmethyl)-amino]-[3,4′]bipyridinyl-2′-yl}-amide], the figure is less than 8 nM.

Regarding `CC(C)(C)OC(=O)N1CCC[C@@H](C(=O)Nc2cc(-c3cnc(Cl)c(NCC4CCOCC4)c3)c(Cl)cn2)C1` [Example 303, (R)-3-{6,5′-Dichloro-5-[(tetrahydro-pyran-4-ylmethyl)-amino]-[3,4′]bipyridinyl-2′-ylcarbamoyl}-piperidine-1-carboxylic acid tert-butyl ester], the IC50 under setting [2] worked out at 25 nM.
